According to patent US6599878B2, “Superoxygenating blood substitutes based on hemoglobin and dihydropyidine compositions” (priority 1992, dated 2003):
Several values for one entry are separate records, joined by “and”; a condition that tells them apart may be missing. Identical values can stand only once. Marks after values point to notes of the source that are not given here.

Tests used:
[1] = BAEE reversal of L-NAME effects in Ab-HD dogs; type: in vivo; conditions: BAEE after L-NAME in AB-HD dogs
Excerpt: With BAEE, the original hemodynamics of Ab-HD alone were expected to be evident, i.e. increased cardiac output.

[2] = tested on: cyclic GMP; assay: BAEE during oxyHb-HD pilot study; type: in vivo, dog; conditions: for cGMP: plasma
Excerpt: (§1) In another pilot study, we examined if infusion of a nitric oxide substrate (N-benzoyl-L-arginine ethyl ester, i.e. BAEE) would override the hypothesized NO scavenging by oxyHb and thereby mimic Ab-HD hemodynamics and cGMP production shown in Tables 8-11. While BAEE administration increased plasma cGMP levels and caused significant vasodilation as evidenced by the decreased mean arterial pressure, cardiac output was not increased (Table 12).

[3] = BAEE during oxyHb-HD pilot study; type: in vivo, dog; conditions: n = 3
Excerpt: as §1

[4] = tested on: nitric oxide synthase; assay: L-NAME during Ab-HD pilot study; conditions: dog, in vivo
Procedure: Approximately 6 mg/kg L-NAME was administered i.v. bolus during Ab-HD.

[5] = Regional blood flows by radioactive microspheres (Example I); type: in vivo, mongrel dogs; conditions: dogs, hematocrit 50% of control
Procedure: Briefly, prior to injection, microspheres labeled with Sc^46, Sr^85, Sn^113 or Ce^141 were vortexed and sonicated. Approximately 30 microcuries (1×10^6 microspheres) were injected into the left atrium of a dog. Beginning with each microsphere injection, duplicate reference blood samples were collected at a constant rate (6 ml min^−1) for 3 minutes from the femoral PE 90 catheters. Radioactivity of the duplicate samples differed by less than 10%, indicating adequate mixing of the microspheres in the left ventricular output. To maintain isovolemic conditions during reference sampling, a 5% albumin solution was infused simultaneously.
After the final injection of microspheres, the heart was stopped by intravenous injection of potassium chloride. Skin and bone (rib) were sampled from a shaved area distal to the thoracotomy. Skeletal muscle samples were taken from the hindlimb, back, forelimb and head. The GI tract was excised from the esophageal sphincter to the anus. All mesentery and omentum were trimmed. The stomach was separated from the tract. These and all other organs were weighed. Multiple samples were taken from each organ and transferred to a tared counting tube.
The tissue and reference samples were weighed and analyzed for radioactivity with a gamma scintillation counter equipped with a multichannel analyzer (Packard Instrument, Downers Grove, Ill.). Isotope separation was accomplished by standard techniques of gamma spectroscopy. Values for organ blood flows (BForgan) in ml min^−1 were calculated from the equation BForgan=ABF×(MC÷AC)×organ weight (g), where ABF is the rate of arterial reference sampling (ml/minute), MC is the microsphere radioactivity (counts min^−1 g^−1) in the tissue samples, and AC is the total microsphere radioactivity (counts/minute) in the arterial reference samples. The fractional distribution of cardiac output to each organ was computed from BForgan÷ΣBForgan, where ΣBForgan is the sum of all organ flows. Skeletal muscle, skin and bone weights were calculated as 40%, 9% and 8% of body weight, respectively.

[6] = tested on: cyclic GMP; assay: Regional interstitial cGMP by microdialysis; type: in vivo, dog; conditions: during hemodilution alone, n = 4
Excerpt: An in vivo method that is based on direct microdialysis of the organ tissue was used to examine the regional interstitial production of cGMP. The microdialysis technique uses a small dialysis fiber (250 μm diameter) that is inserted into the tissue and perfused to sample extracellular metabolites.

[7] = In vivo test of hemoglobin product for common adverse effects during hemodilution; conditions: anesthetized dog, hemodilution to hematocrit 50% of baseline
Procedure: The hemoglobin product was also tested in vivo on dogs for common adverse effects of therapeutic products which are administered intravascularly. The hemodilution protocol used and the physiologic tests performed are standard in the art and were similar to that described in Rabiner et al., J. Exp. Med., 86, 455-463 (1967); Sunder-Plassmann et al., supra; and Crystal et al., Anesth. Analg., 67, 211-218 (1988) Briefly, the hemoglobin product was infused into a venous access of an anesthetized dog with simultaneous withdrawal of arterial blood on a one-to-one basis at about 25 ml/minute until hematocrit was 50% of baseline (about 20 vol %). Tests for pyrogenic effects, hypotensive effects, arrhythmia, inotropic effects, bradycardia, tachycardia, hypovolemia, dysoria, and coagulopathy were all negative.

[8] = Whole body oxygenation (Example I); type: in vivo, mongrel dogs; conditions: for CaO2: arterial oxygen content
Procedure: (§2) Blood pH, PCO2, PO2 and Na^+, K^+ and Ca^++ concentrations were measured with a Nova Stat Profile 1 analyzer (Waltham, Mass.). Plasma colloid osmotic pressure (COP) was determined before and after hemodilution with a Wescor 4400 Colloid Osmometer (Logan, Utah). […] Hematocrit was determined volumetrically. Hemoglobin (gm %), methemoglobin (%) and percent oxygen saturation were measured with an Instrumentation Laboratories 482 CO-Oximeter (Lexington, Mass.). Hemoglobin oxygen content was measured with the co-oximeter and added to the dissolved oxygen (0.003×PO2) to give total blood oxygen content (vol %).
Whole body oxygen extraction ratio (O2 extr, %) was calculated from arteria-mixed venous oxygen content difference C(a−v)O2 divided by the arterial oxygen content (CaO2). Whole body oxygen consumption (WBVO2) in ml/minute was determined using the Fick equation, WBVO2=CO×C(a−v)O2 Oxygen delivery (DO2) in ml/minute was calculated from CaO2×CO.
Upon arrival in the laboratory, typically all dogs had hematocrits of 45 vol % or greater and filling pressures (LVEDP) of 5 mm Hg or less. Following cannulation all animals were hydrated with 5 mg % albumin to increase filling pressure (LVEDP) above 5 mm Hg and to bring hematocrit to near 40 vol %. Twelve dogs underwent isovolemic exchange of blood for 10 gm % hemoglobin to hematocrit 50% of baseline. […] The colloid pressure of 10 gm % hemoglobin and 8 gm % albumin (both about 40 Torr) is about twice that of dog plasma and after in vivo dilution would be expected to sustain plasma volumes at baseline values or greater.
(§3) Once MAP stabilized (≈5-10 min), hemodynamic measurements, blood gases and other samples were obtained.

[9] = Blood gases, electrolytes, hemoglobin, colloid osmotic pressure and blood volume (Example I); type: in vivo, mongrel dogs; conditions: for Plasma Hb: anesthetized dogs
Procedure: as §2
Total blood volume was computed from plasma volume (indicator dilution of iodinated I^125-albumin, Mallinckrodt Medical, Inc., St. Louis, Mo.) and whole body hematocrit.
Following cannulation all animals were hydrated with 5 mg % albumin to increase filling pressure (LVEDP) above 5 mm Hg and to bring hematocrit to near 40 vol %. Twelve dogs underwent isovolemic exchange of blood for 10 gm % hemoglobin to hematocrit 50% of baseline.
as §3

[10] = Properties of the hemoglobin product and colloid solutions; type: physicochemical
Procedure: as §2

[11] = Systemic hemodynamics in anesthetized hemodiluted dogs (Example I); type: in vivo, mongrel dogs
Procedure: Twenty-four conditioned, heartworm-free male mongrel dogs (20 to 30 kg) were anesthetized with sodium pentobarbital (30 mg/kg i.v.) followed by an i.v. maintenance dose of 4 mg/kg/hour. After intubation of the trachea with a cuffed endotracheal tube, the dog was mechanically ventilated (Siemens 900D Servoventilator) with 100% oxygen, tidal volumes of 10 to 12 ml/kg and respiration at a rate to achieve normocarbia. […] Sodium bicarbonate was not administered. The body temperature of the dog was maintained at 39 C. with water-circulated heating pads.
The dog was placed supine and a polyethylene catheter (PE 200) was inserted into the thoracic aorta via the left femoral artery for measurement of blood pressure. Two small-bore (PE 90) heparin-filled catheters of different lengths were placed in the abdominal aorta via the right femoral artery to collect reference blood samples containing radioactive microspheres for measurement of regional blood flow. Wide-bore (PE 240) catheters were placed in the right femoral vein and in the right carotid artery, for isovolemic exchange transfusion and for the administration of intravenous fluids and collection of arterial blood samples. A 5 french thermodilution catheter was advanced into the pulmonary artery via the right external jugular vein for measurement of cardiac output and right atrial pressure. A Foley catheter was inserted into the bladder for urine collection.
Under fluoroscopy, a 5 french volume-conductance catheter (Mansfield Webster) was inserted via the left carotid artery across the aortic valve to the apex of the left ventricle to measure instantaneous volume.
The animal was then placed on its right side and paralyzed with doxacurium (0.05 mg/kg) to perform a left thoracotomy in the fourth intercostal space. The exposed lung was retracted with gauze. Five cm H2O positive end-expiratory pressure was instituted to prevent atelectasis. A small incision was made in the pericardium near the left atrial appendage. The appendage was protracted and a PE 90 catheter, for microsphere injection, inserted into the ventricle via pressure verification and then pulled back into the atrium. A 3 french micromanometer-tipped pressure catheter (Millar) was then inserted via the appendage into the left ventricle for pressure recording. Both catheters were secured with a ligature around the appendage and distally taped to the animal. The exposed thoracic surface was covered with plastic film to prevent evaporation.
Continuous measurements of heart rate (HR), pulsatile aortic pressure, mean aortic pressure (MAP), left ventricular peak pressure (LVPP), rate-of-change of LVPP (dP/dt), LV end diastolic pressure (LVEDP), LV volume, and right atrial pressure (RAP) were recorded on an analog thermal array recorder (Gould Model TA4000) and stored on a computerized data acquisition system (Halcom, Inc.) Cardiac output (CO) was measured in triplicate using a Spectramed Hemoprol computer. Systemic vascular resistance (SVR) was calculated from (MAP−RAP)÷CO. Systemic vascular hindrance (SVH) was calculated from SVR÷η, where η is the apparent viscosity of blood in centipoise (cp). At high flow rates (shear rates≈200 s^−1) assumed in the aorta, η is 4.0 cp for hematocrit (Hct) of 40 vol % and 2.1 cp for Hct of 20 vol %. Stroke volume was derived from CO÷HR. LV stroke work (LVSW) was calculated from (systolic AoP−LVEDP)×SV×0.0136.

[12] = tested on: cyclic GMP; assay: Plasma cyclic GMP and arterial pressure before and after hemodilution and SNP (Example II); type: in vivo, dog; conditions: hemodilution alone, n = 5, mean ± sem
[13] = BAEE 400 μg/kg/min during oxyHb-HD, n = 3
[14] = anesthetized dogs, hemodilution to hematocrit 50% of baseline

Compound: CCOC(=O)[C@H](CCCNC(=N)N)NC(=O)c1ccccc1 [BAEE, N-benzoyl-L-arginine ethyl ester, reference compound]
- reversal of cardiac output to the high levels of Ab-HD alone [1]: not reversed
- MAP [2, 13]: 108 ± 8*+ mm Hg
- cGMP [2, 13]: 24.44 ± 1.05*+ μg/ml
- CO ([3]; BAEE 400 μg/kg/min during oxyHb-HD): 2376 ± 233 mL/min

Compound: COC(=O)[C@@H](N)CCCNC(=N)N[N+](=O)[O-] [L-NAME, L-nitro arginine methyl ester]
- CO [4]: 2413 ± 1721+ ml/min
- MAP [4]: 152 ± 8*+ mm Hg
- cGMP [4]: 17.38 ± 0.98*+ μg/ml

Compound: HbHD: Purified canine hemoglobin (10 gm %) used for isovolemic hemodilution
- Organ blood flow, change from control: Bone [5]: No
- Organ blood flow, change from control: Brain [5]: Yes (+40%)
- Organ blood flow, change from control: Gastrointestinal [5]: No
- Organ blood flow, change from control: Liver [5]: No
- Organ blood flow, change from control: Lung [5]: Yes (−53%)
- Organ blood flow, change from control: Myocardium [5]: Yes (+80%)
- Organ blood flow, change from control: Pancreas [5]: No
- Organ blood flow, change from control: Renal [5]: No
- Organ blood flow, change from control: Skeletal muscle [5]: No
- Organ blood flow, change from control: Skin [5]: No
- Organ blood flow, change from control: Spleen [5]: Yes (−39%)
- Organ blood flow, change from control: Total (= Cardiac output) [5]: No
- Cyclic GMP levels in regional interstitial microdialysate, MU ([6]; MU): 17.98* μg/ml
- Cyclic GMP levels in regional interstitial microdialysate, BO ([6]; bone): 18.64* μg/ml
- Cyclic GMP levels in regional interstitial microdialysate, BR ([6]; brain): 19.94* μg/ml
- Cyclic GMP levels in regional interstitial microdialysate, GI ([6]; gastrointestinal tract): 12.68* μg/ml
- Cyclic GMP levels in regional interstitial microdialysate, HE ([6]; heart): 14.44* μg/ml
- Cyclic GMP levels in regional interstitial microdialysate, LI ([6]; liver): 20.34* μg/ml
- Cyclic GMP levels in regional interstitial microdialysate, LU ([6]; lung): 18.74* μg/ml
- Cyclic GMP levels in regional interstitial microdialysate, SP ([6]; spleen): 16.40* μg/ml
- Tests for pyrogenic effects, hypotensive effects, arrhythmia, inotropic effects, bradycardia, tachycardia, hypovolemia, dysoria, and coagulopathy [7]: negative
- Cyanide (blood, n = 6): 0.13 ± 0.03 mg/L
- Lactate (dog, in vivo): 2.2 ± 0.3 meq/L
- C(a-v)O2 ([8]; anesthetized dogs): 6.1 ml/100 ml
- CvO2 ([8]; anesthetized dogs): 8.8 ml/100 ml
- CaO2 ([8]; anesthetized dogs): 14.9 ml/100 ml
- CaO2 ([8]; anesthetized dogs, listed as hemoglobin): 14.9±0.4 ml/100 ml
- DO2 ([8]; oxygen delivery = CaO2 x CO): 302 mL/min
- decrease in oxygen delivery ([8]; vs control): 30%
- reduction in arterial oxygen content ([8]; vs control): 24%
- WBVO2 ([8]; whole body oxygen consumption): 125 mL/min
- O2 extr ([8]; whole body oxygen extraction ratio): 45%
- MAP ([2]; oxyHb-HD alone, n = 3): 146 ± 5 mm Hg
- cGMP ([2]; oxyHb-HD alone, n = 3, mean ± sem): 17.80 ± 0.95 µg/mL
- CO ([3]; oxyHb-HD alone): 2880 ± 245 mL/min
- Plasma Hb [9]: 4.6 g/100 ml
- Plasma Hb ([9]; listed as hemoglobin): 4.6 g/100 ml
- plasma hemoglobin as share of total whole blood hemoglobin concentration ([9]; dog, in vivo): approximately 40%
- hemoglobin excreted in urine, share of the approximately 100 grams infused ([9]; hemoglobinuria): less than 1%
- % carboxyhemoglobin [10]: <0.5%
- % methemoglobin [10]: <1%
- Ca^+ [10]: 1.2 mmol/L
- Colloid osmotic pressure [10]: 40 mm Hg
- Davenport diagram [10]: Normal
- Haldane effect [10]: Normal
- Hill plot [10]: Normal
- K [10]: 3.4 mmol/L
- Na [10]: 150 mmol/L
- Osmolality [10]: 310 mOsmol/kg
- Oxygen capacity [10]: 13.5 vol %
- Oxygen content [10]: 13.5 vol %
- PCO2 [10]: 15 mm Hg
- PO2 [10]: 200 mm Hg
- Total Hb concentration [10]: 10 gm %
- Viscosity [10]: ≈2.0 cp
- pH [10]: 6.9
- COP of colloid solution ([10]; 8% albumin, 10% hemoglobin, Wescor 4400 Colloid Osmometer): 40.8±1.0 mm Hg
- Bohr coefficient ([10]; pH 7.2-7.4): 0.54 (pH 7.2-7.4)
- P50 ([10]; pH 7.4): 24 mm Hg (pH 7.4)
- LV Elastance [11, 14]: 4.91 mm Hg ml
- LV dP/dtmax [11, 14]: 1713 mm Hg/sec
- LVPP [11, 14]: 154 mm Hg
- LVSW [11, 14]: 29.2 g m/beat
- MAP [11, 14]: 136 mm Hg
- heart rate [11, 14]: 153 beats/min
- mean aortic, right atrial and LV end-diastolic (systemic) pressures vs control ([11]; dog, in vivo): not changed
- systemic vascular resistance vs control ([11]; dog, in vivo): not changed
- effect on cardiac output and stroke volume ([11]; vs control): did not change
- increase in systemic vascular hindrance ([11]; vs control): ~100%
- MAP [12]: 142 ± 6 mm Hg
- Plasma cGMP ([12]; listed as oxyHb-HD): 17.22 ± 1.02*+ μg/ml and 17.22 ± 1.02 μg/ml
